Results published in ChEMBL document CHEMBL6096638, “Design, synthesis and biological evaluation of novel TMPRSS2-PROTACs with florosubstituted 4-guanidino-N-phenylbenzamide derivative ligands” (Bioorg Med Chem, 2024).
Activity calls are given as the source filed them. No cut-off for these calls is given here.

What was measured:
DU-145 [1] = test: Antiproliferative activity against human DU-145 cells assessed as inhibition of cell growth at 20 uM incubated for 48 hrs by CCK-8 assay relative to control; assay type: functional
HT-29 [2] = test: Antiproliferative activity against human HT-29 cells assessed as inhibition of cell growth at 20 uM incubated for 48 hrs by CCK-8 assay relative to control; assay type: functional
Calu-3 [3] = test: Antiproliferative activity against human Calu-3 cells assessed as inhibition of cell growth at 20 uM incubated for 48 hrs by CCK-8 assay relative to control; assay type: functional
AGS = test: Antiproliferative activity against human AGS cells assessed as inhibition of cell growth incubated for 48 hrs by CCK-8 assay; assay type: functional, cell-based
HT-29 [4] = test: Antiproliferative activity against human HT-29 cells assessed as inhibition of cell growth incubated for 48 hrs by CCK-8 assay; assay type: functional, cell-based; conditions: HT-29, 48 h
SK-N-AS = test: Antiproliferative activity against human SK-N-AS cells assessed as inhibition of cell growth incubated for 48 hrs by CCK-8 assay; assay type: functional, cell-based
SH-SY5Y = test: Antiproliferative activity against human SH-SY5Y cells assessed as inhibition of cell growth incubated for 48 hrs by CCK-8 assay; assay type: functional, cell-based
DU-145 [5] = test: Antiproliferative activity against human DU-145 cells assessed as inhibition of cell growth incubated for 48 hrs by CCK-8 assay; assay type: functional, cell-based; conditions: DU-145, 48 h
PC-3 = test: Antiproliferative activity against human PC-3 cells assessed as inhibition of cell growth incubated for 48 hrs by CCK-8 assay; assay type: functional, cell-based; conditions: PC-3, 48 h
786-0 = test: Antiproliferative activity against human 786-0 cells assessed as inhibition of cell growth incubated for 48 hrs by CCK-8 assay; assay type: functional, cell-based; conditions: 786-0, 48 h
Calu-3 [6] = test: Antiproliferative activity against human Calu-3 cells assessed as inhibition of cell growth incubated for 48 hrs by CCK-8 assay; assay type: functional, cell-based; conditions: Calu-3, 48 h
MDA-MB-231 = test: Antiproliferative activity against human MDA-MB-231 cells assessed as inhibition of cell growth incubated for 48 hrs by CCK-8 assay; assay type: functional, cell-based; conditions: MDA-MB-231, 48 h
NCI-H1299 = test: Antiproliferative activity against human NCI-H1299 cells assessed as inhibition of cell growth incubated for 48 hrs by CCK-8 assay; assay type: functional, cell-based; conditions: NCI-H1299, 48 h
K562 = test: Antiproliferative activity against human K562 cells assessed as inhibition of cell growth incubated for 48 hrs by CCK-8 assay; assay type: functional, cell-based; conditions: K562, 48 h
CWR22R = test: Antiproliferative activity against human 22Rv1 cells assessed as inhibition of cell growth incubated for 48 hrs by CCK-8 assay; assay type: functional, cell-based; conditions: 22Rv1, 48 h
VCaP = test: Antiproliferative activity against human VCaP cells assessed as inhibition of cell growth incubated for 48 hrs by CCK-8 assay; assay type: functional, cell-based
MRC5 = test: Antiproliferative activity against human MRC5 cells assessed as inhibition of cell growth incubated for 48 hrs by CCK-8 assay; assay type: functional, cell-based; conditions: MRC5, 48 h
A-375 = test: Antiproliferative activity against human A-375 cells assessed as inhibition of cell growth incubated for 48 hrs by CCK-8 assay; assay type: functional, cell-based; conditions: A-375, 48 h
A549 = test: Antiproliferative activity against human A549 cells assessed as inhibition of cell growth incubated for 48 hrs by CCK-8 assay; assay type: functional, cell-based; conditions: A549, 48 h

SMILES | inhibition at 20 µM (DU-145 [1]) [%] | inhibition at 20 µM (HT-29 [2]) [%] | inhibition (Calu-3 [3]) | further results
Cc1ncsc1-c1ccc(CNC(=O)[C@@H]2C[C@@H](O)CN2C(=O)[C@@H](NC(=O)OCCOCCOCCOCc2cccc(NC(=O)c3ccc(NC(=N)N)cc3)c2)C(C)(C)C)cc1 | 13.7 | 15.1 | inactive | –
Cc1ncsc1-c1ccc(CNC(=O)[C@@H]2C[C@@H](O)CN2C(=O)[C@@H](NC(=O)COCCOCCOCCN2CCN(c3cccc(NC(=O)c4ccc(NC(=N)N)cc4)c3)CC2)C(C)(C)C)cc1 | 15.3 | 23.8 | inactive | –
Cc1ncsc1-c1ccc(CNC(=O)[C@@H]2C[C@@H](O)CN2C(=O)[C@@H](NC(=O)COCCOCCOCCN2CCN(c3ccc(NC(=O)c4ccc(NC(=N)N)cc4)cc3)CC2)C(C)(C)C)cc1 | – | 14.4 | inactive | inhibition (DU-145 [1]): inactive
COc1cc(C(=O)Nc2ccc(CC(=O)NCCCCCC(=O)Nc3cccc4c3CN(C3CCC(=O)NC3=O)C4=O)cc2)ccc1NC(=N)N (centres undefined) | 9.05 | 18.9 | inactive | –
Cc1ncsc1-c1ccc(CNC(=O)[C@@H]2C[C@@H](O)CN2C(=O)[C@@H](NC(=O)CN2CCN(c3ccc(NC(=O)c4ccc(NC(=N)N)cc4F)cc3)CC2)C(C)(C)C)cc1 | 14.4 | 34.4 | – | inhibition at 20 µM (Calu-3 [3]): 10.3%
COc1cc(C(=O)Nc2ccc(CC(=O)NCCCCCCC(=O)N[C@H](C(=O)N3C[C@H](O)C[C@H]3C(=O)NCc3ccc(-c4scnc4C)cc3)C(C)(C)C)cc2)ccc1NC(=N)N | 8.05 | 31.6 | inactive | –
Cc1ncsc1-c1ccc(CNC(=O)[C@@H]2C[C@@H](O)CN2C(=O)[C@@H](NC(=O)CN2CCC(CN3CCN(c4ccc(NC(=O)Cc5ccc(NC(=O)c6ccc(NC(=N)N)cc6F)cc5)cc4)CC3)CC2)C(C)(C)C)cc1 | 5.64 | 37.3 | inactive | –
Cc1ncsc1-c1ccc(CNC(=O)[C@@H]2C[C@@H](O)CN2C(=O)[C@@H](NC(=O)CN2CCN(c3ccc(NC(=O)c4ccc(NC(=N)N)cc4)cc3)CC2)C(C)(C)C)cc1 | 9.51 | 29.7 | inactive | –
COc1cc(C(=O)Nc2ccc(CC(=O)NCCCCCCNc3cccc4c3C(=O)N(C3CCC(=O)NC3=O)C4=O)cc2)ccc1NC(=N)N (centres undefined) | 10.5 | 21.1 | inactive | –
CC(=O)O[C@H]1C(=O)[C@@]2(C)[C@H]([C@H](OC(=O)c3ccccc3)[C@]3(O)C[C@H](OC(=O)[C@H](O)[C@@H](NC(=O)c4ccccc4)c4ccccc4)C(C)=C1C3(C)C)[C@]1(OC(C)=O)CO[C@@H]1C[C@@H]2O [PACLITAXEL] | – | – | – | IC50 (AGS): 10 nM; IC50 (HT-29 [4]): 10 nM; IC50 (SK-N-AS): 10 nM; IC50 (SH-SY5Y): 10 nM; IC50 (DU-145 [5]): 10 nM; IC50 (PC-3): 7560 nM; IC50 (786-0): 80 nM; IC50 (Calu-3 [6]): 37200 nM; IC50 (MDA-MB-231): 60 nM; IC50 (NCI-H1299): 1150 nM; IC50 (K562): 10 nM; IC50 (CWR22R): 40 nM; IC50 (VCaP): 5540 nM; IC50 (MRC5): 110 nM; IC50 (A-375): 10 nM
COc1cc(C(=O)Nc2cccc(COCCOCCOCCOC(=O)N[C@H](C(=O)N3C[C@H](O)C[C@H]3C(=O)NCc3ccc(-c4scnc4C)cc3)C(C)(C)C)c2)ccc1NC(=N)N | 8.88 | 30.1 | inactive | –
COc1cc(C(=O)Nc2ccc(CC(=O)NCCCCCCCC(=O)N[C@H](C(=O)N3C[C@H](O)C[C@H]3C(=O)NCc3ccc(-c4scnc4C)cc3)C(C)(C)C)cc2)ccc1NC(=N)N | 11.2 | 31.6 | inactive | –
COc1cc(C(=O)Nc2ccc(N3CCN(CC(=O)N[C@H](C(=O)N4C[C@H](O)C[C@H]4C(=O)NCc4ccc(-c5scnc5C)cc4)C(C)(C)C)CC3)cc2)ccc1NC(=N)N | 6.76 | 30.7 | inactive | –
N=C(N)Nc1ccc(C(=O)Nc2ccc(CC(=O)NCCCCCC(=O)N3CCN(c4ccc5c(c4)C(=O)N(C4CCC(=O)NC4=O)C5=O)CC3)cc2)cc1 (centres undefined) | 5.82 | 22.4 | inactive | –
COc1cc(C(=O)Nc2ccc(CC(=O)NCCCCCC(=O)N[C@H](C(=O)N3C[C@H](O)C[C@H]3C(=O)NCc3ccc(-c4scnc4C)cc3)C(C)(C)C)cc2)ccc1NC(=N)N | 7.56 | 20.5 | inactive | –
Cc1ncsc1-c1ccc(CNC(=O)[C@@H]2C[C@@H](O)CN2C(=O)[C@@H](NC(=O)CN2CCC(CN3CCN(c4ccc(NC(=O)Cc5ccc(NC(=O)c6ccc(NC(=N)N)cc6)cc5)cc4)CC3)CC2)C(C)(C)C)cc1 | 5.63 | 25.9 | inactive | –
Cc1ncsc1-c1ccc(CNC(=O)[C@@H]2C[C@@H](O)CN2C(=O)[C@@H](NC(=O)CN2CCC(CN3CCN(c4ccc(NC(=O)c5ccc(NC(=N)N)cc5)cc4)CC3)CC2)C(C)(C)C)cc1 | 6.8 | 35.5 | inactive | –
COc1cc(C(=O)Nc2ccc(CC(=O)NCCCCCC(=O)N3CCN(c4ccc5c(c4)C(=O)N(C4CCC(=O)NC4=O)C5=O)CC3)cc2)ccc1NC(=N)N (centres undefined) | 7.04 | 7.56 | inactive | –
COc1cc(C(=O)Nc2ccc(CC(=O)Nc3ccc(CC(=O)NCCCCCCNc4cccc5c4C(=O)N(C4CCC(=O)NC4=O)C5=O)cc3)cc2)ccc1NC(=N)N (centres undefined) | 16.5 | 32.7 | inactive | –
N=C(N)Nc1ccc(C(=O)Nc2ccc(CC(=O)N3CCC(CN4CCN(CCCNc5ccc6c(c5)C(=O)N(C5CCC(=O)NC5=O)C6=O)CC4)CC3)cc2)cc1 (centres undefined) | 16.8 | 37.4 | – | inhibition at 20 µM (Calu-3 [3]): 5.77%
Cc1ncsc1-c1ccc(CNC(=O)[C@@H]2C[C@@H](O)CN2C(=O)[C@@H](NC(=O)CN2CCC(CN3CCN(c4ccc(NC(=O)c5ccc(NC(=N)N)cc5F)cc4)CC3)CC2)C(C)(C)C)cc1 | 56.9 | 91.9 | – | IC50 (HT-29 [4]): 3830 nM; IC50 (A549): 35100 nM; IC50 (DU-145 [5]): 11200 nM; IC50 (Calu-3 [6]): 21400 nM; IC50 (MRC5): > 40000 nM; inhibition at 20 µM (Calu-3 [3]): 47.5%
COc1cc(C(=O)Nc2ccc(CC(=O)Nc3ccc(N4CCN(CC5CCN(CC(=O)N[C@H](C(=O)N6C[C@H](O)C[C@H]6C(=O)NCc6ccc(-c7scnc7C)cc6)C(C)(C)C)CC5)CC4)cc3)cc2)ccc1NC(=N)N | 5.06 | 18.4 | – | inhibition at 20 µM (Calu-3 [3]): 5.66%
COc1cc(C(=O)Nc2ccc(CC(=O)N3CCC(CN4CCN(c5ccc6c(c5)C(=O)N(C5CCC(=O)NC5=O)C6=O)CC4)CC3)cc2)ccc1NC(=N)N (centres undefined) | 14.6 | 37.7 | inactive | –
COc1cc(C(=O)Nc2ccc(N3CCN(CC4CCN(CC(=O)N[C@H](C(=O)N5C[C@H](O)C[C@H]5C(=O)NCc5ccc(-c6scnc6C)cc5)C(C)(C)C)CC4)CC3)cc2)ccc1NC(=N)N | – | 42.3 | inactive | inhibition (DU-145 [1]): inactive
